# Molecular target: T1, Tg-P450 (Toxoplasma gondii, UniProt S8EQL7)
# T1 construct: gene TGME49_315770; P450 knockout as negative control
# Test: in situ fluorescence microscopy of resorufin formation (rhodamine filter), knockout control
# Format: cell-based
# Conditions: 1 uM, 24 h, 37 °C; live tachyzoites in HepG2 cells; strain given as Tg-P450 OE in text, GT1 in figure legend
# T1 sequence (S8EQL7 entry or part of it): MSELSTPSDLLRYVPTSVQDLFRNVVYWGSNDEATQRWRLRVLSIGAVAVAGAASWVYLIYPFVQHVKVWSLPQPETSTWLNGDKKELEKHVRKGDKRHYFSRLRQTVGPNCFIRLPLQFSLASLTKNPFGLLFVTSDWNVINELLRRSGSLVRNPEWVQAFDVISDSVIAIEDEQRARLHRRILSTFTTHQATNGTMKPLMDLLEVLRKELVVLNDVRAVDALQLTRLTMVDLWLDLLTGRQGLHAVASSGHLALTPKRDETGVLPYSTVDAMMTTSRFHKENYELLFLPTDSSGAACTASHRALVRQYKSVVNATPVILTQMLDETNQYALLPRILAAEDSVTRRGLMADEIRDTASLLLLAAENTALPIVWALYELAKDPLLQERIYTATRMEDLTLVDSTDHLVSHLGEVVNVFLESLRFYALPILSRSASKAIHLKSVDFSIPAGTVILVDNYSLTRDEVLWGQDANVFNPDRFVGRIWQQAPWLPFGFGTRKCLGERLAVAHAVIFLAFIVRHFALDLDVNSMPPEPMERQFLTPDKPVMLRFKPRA
row,Compound,"in situ fluorescence microscopy of resorufin formation (rhodamine filter), knock"
1,"O=c1ccc2nc3ccc(OCc4ccccc4)cc3oc-2c1 [BR, benzoxyresorufin]","After treating the P450 knockout parasites with PR and BR, no fluorescence was observed"
2,"CCCCCOc1ccc2nc3ccc(=O)cc-3oc2c1 [PR, pentoxyresorufin]",a weak specific fluorescence signal was visible in the Tg-P450 OE strain
